B1: 3-CR004366: gRNA targeting human B2M; targeting domain SEQ ID NO: 110; sgRNA SEQ ID NO: 161; from Dharmacon (nucleic acid)
guide: AAGUCAACUUCAAUGUCGGAGUUUUAGAGCUAGAAAUAGCAAGUUAAAAUAAGGCUAGUCCGUUAUCAACUUGAAAAAGUGGCACCGAGUCGGUGCUUUU
modifications: listed as RNA, chemistry not given here
notes: gRNA targeting human B2M; from Dharmacon
B2: CR006979: gRNA targeting human B2M; targeting domain SEQ ID NO: 140; sgRNA SEQ ID NO: 177 (nucleic acid)
guide: UCCUGAAUUGCUAUGUGUCUGUUUUAGAGCUAGAAAUAGCAAGUUAAAAUAAGGCUAGUCCGUUAUCAACUUGAAAAAGUGGCACCGAGUCGGUGCUUUU
modifications: listed as RNA, chemistry not given here
B3: 11-HEYJA000008: gRNA targeting human B2M; targeting domain SEQ ID NO: 118; sgRNA SEQ ID NO: 169 (nucleic acid)
guide: CCACCUCUUGAUGGGGCUAGGUUUUAGAGCUAGAAAUAGCAAGUUAAAAUAAGGCUAGUCCGUUAUCAACUUGAAAAAGUGGCACCGAGUCGGUGCUUUU
modifications: listed as RNA, chemistry not given here
B4: 10-HEYJA000007: gRNA targeting human B2M; targeting domain SEQ ID NO: 117; sgRNA SEQ ID NO: 168 (nucleic acid)
guide: AGUCACAUGGUUCACACGGCGUUUUAGAGCUAGAAAUAGCAAGUUAAAAUAAGGCUAGUCCGUUAUCAACUUGAAAAAGUGGCACCGAGUCGGUGCUUUU
modifications: listed as RNA, chemistry not given here
B5: 2-CR004366: gRNA targeting human B2M; targeting domain SEQ ID NO: 109; sgRNA SEQ ID NO: 160; from Dharmacon (nucleic acid)
guide: CGUGAGUAAACCUGAAUCUUGUUUUAGAGCUAGAAAUAGCAAGUUAAAAUAAGGCUAGUCCGUUAUCAACUUGAAAAAGUGGCACCGAGUCGGUGCUUUU
modifications: listed as RNA, chemistry not given here
notes: as for B1
B6: 5-CR004366: gRNA targeting human B2M; targeting domain SEQ ID NO: 112; sgRNA SEQ ID NO: 163; from Dharmacon (nucleic acid)
guide: CUGAAUCUUUGGAGUACCUGGUUUUAGAGCUAGAAAUAGCAAGUUAAAAUAAGGCUAGUCCGUUAUCAACUUGAAAAAGUGGCACCGAGUCGGUGCUUUU
modifications: listed as RNA, chemistry not given here
notes: as for B1

Legend:
[1] = tested on: human limbal stem cells; test: Human limbal stem cell population expansion and measurement (expansion factor, p63alpha-positive cells); type: cell-based; conditions: 10 micromolar in XVIVO15 medium, two passages; for Expansion factor: ratio of expanded population to seeded cells; for Percentage of p63a-positive cells: share of Sytox Orange-positive nuclei expressing p63alpha
Experimental: Cells were cultured at 37° C. in 5% CO2.
For each compound, two sets of cultures were generated. A first set of cultures was fixed in 4% PFA for 20 minutes at room temperature after cells isolated from the cornea had attached to the cell culture dish (typically 24 h after cell plating). A second set of cultures was fixed in 4% PFA for 20 minutes at room temperature after being cultured for two passages. Cells were passaged when they reached 90-100% confluence.
In order to observe that the expanded cell population expressed p63alpha, this was measured by immunohistochemistry as follows. The fixed cell cultures were permeabilized and blocked in a blocking solution of 0.3% Triton X-100 (Sigma-Aldrich) and 3% donkey serum in PBS for 30 minutes. Cells were then labeled with primary antibody in the blocking solution for 12 hours at 4° C. Primary antibody used was p63alpha from Cell Signalling. Samples were washed in PBS three times and donkey-raised secondary antibody Alexa Fluor 488 (Molecular Probes) at 1:500 dilution were applied for 30 minutes at room temperature. Cell nuclei were then labeled in a solution of 0.5 micromolar of Sytox Orange (ThermoFisher) in PBS for 5 minutes at room temperature.
To evaluate the percentage of p63alpha-positive cells, the number of cells labeled by the anti-p63alpha antibody was counted and the total number of cells was determined by counting the number of nuclei stained by Sytox Orange. The proportion of p63alpha-positive cells was then determined by calculating the percentage of Sytox-orange-positive nuclei that also expressed p63alpha.
To evaluate cell expansion ratios, nuclei were counted using a Zeiss LSM 880 confocal microscope. The expansion factor was then determined by calculating the ratio of the expanded population of cells to population of seeded cells.

[2] = tested on: human B2M; test: CRISPR/Cas9-mediated deletion of B2M in HEK293 (lipofection, FACS); type: cell-based; conditions: lipofection of tracrRNA, gRNA and Cas9 mRNA; FACS after 72 h
Experimental: One day before transfection, 500′000 HEK293cells (ATCC, Manassas, VA) were plated in a 35 mm dish and grown in DMEM/10%FBS. The following day, cells were transfected with a mixture of tracrRNA-gRNA-Cas9 mRNA. A stock of 10 micromolar was prepared resuspending 20 nanomoles of gRNA and 20 nanomoles tracrRNA in 2000 microlitre 10 millimolar Tris buffer pH7.4 each.
The mixture was added drop wise to the culture dish in 2.5 ml DMEM/10%FBS medium. The transfection reagent alone represented the transfection negative control.
After 6 h incubation in 5% CO2 at 37° C. medium was replaced with fresh DMEM/10%FBS medium. After 72 h in a 5% CO2 incubator cells were prepared for FACS analysis. FACS analysis: HEK293 cells were treated with Accutase (ThermoFisher, Cat # A1110501) for 20 minutes in 5% CO2 at 37° C. The reaction was stopped by using cell culture medium containing 10% Serum and transferred to a falcon tube for a centrifugation step (1000 rpm, 5 minutes). After aspirating the medium cells were resuspended in 200 microlitre FACS buffer (PBS/10%FBS).
To analyze the expression of B2M and HLA-ABC, 5 microlitre APC mouse anti-human β2-microglobulin antibody (Biolegend, Cat #316312) and 20 microlitre PE mouse anti-human HLA-ABC antibody (BD Bioscience, Cat # 560168) were added to the cell suspension and incubated for 30 minutes on ice. Cells were washed 3 times after antibody labelling with FACS buffer and resuspended in 500 microlitre in FACS buffer.
Each sample was transferred to one well of a round bottom 96 well plate and analyzed on a BD LSRFortessa X-20 device. FACS data were analyzed using BD FACSDiva software.

[3] = tested on: B2M; test: sgRNA screening for B2M knockout in LSCs (nucleofection, FACS); type: cell-based, human; conditions: Cas9 protein SEQ ID NO: 106, LSCs at passage 3, FACS after around 3 days
Experimental: Cells were cultured under these conditions for 24-48 hours at 37° C. in 5% CO2.
LSCs were nuclofected with selected gRNAs (Table 6) followed by FACS analysis / MACS separation.
After scraping the cells, the reaction was stopped by using cell culture medium containing 10% Serum and transferred to a falcon tube. After counting cells using Vi-cell 300′000 cells were prepared per reaction by transferring 300′000 cells in single tubes and centrifuged at 1000 rpm for 5 min. The supernatant was aspirated using manually pipetting to avoid cell loss and the cells were resuspended in the Stem cell nucleofector solution II (Lonza, Cat #VPH-5022). Resuspend cells in nucleofector solution immediately before adding the Cas9 RNP:sgRNA mixture. To obtain the nucleofection mixture, 5 µg high concentrated (≥5 µg/µl) Cas9 protein of SEQ ID NO: 106 (volume = 0.78 µl) was mixed with 19.5 µg sgRNA of Table 6 (volume = 12.2 µl) and incubated for 20 min at room temperature. […] The Cas9 protein-guideRNA complex was added to the cell suspension and transferred to the electroporation cuvette immediately. Cells were transfected using the nucelofector device (Lonza, Amaxa Nucleofector II) and program A023. After nucleofection cells were transferred from cuvette to one well of a 24 well synthemax coated plate containing pre-warmed LSC medium including 3 µM LATS compound and 10 µM Rock inhibitor Y-27632 (Nature 1997, vol. 389, pp. 990-994). Incubate LSCs in a 5% CO2 incubator for around 3 days until cells are 90% confluent.
LSCs were treated with TryLE®Express Enzym (ThermoFisher, Cat #12605010) for 15 minutes in 5% CO2 at 37° C. After scraping the cells, the reaction was stopped by using cell culture medium containing 10% Serum and transferred to a falcon tube for a centrifugation step (1000 rpm, 5 minutes). After aspirating the medium cells were resuspended in 200 µl FACS buffer (PBS/10%FBS).
To analyze the expression of B2M and HLA-ABC, 5 µl APC mouse anti-human β2-microglobulin antibody (Biolegend, Cat#316312) and 20 µl PE mouse anti-human HLA-ABC antibody (BD Bioscience, Cat # 560168) were added to the cell suspension and incubated for 30 minutes on ice.
Cells were washed 3 times after antibody labelling with FACS buffer and resuspended in 200 µl in FACS buffer (depending on the cell number).
FACS data were analyzed using BD FACSDiva software and FlowJo software.

Molecule | Expansion factor [1] | Percentage of p63a-positive cells [1] [%] | B2M knockout efficiency in HEK293 [2] [%] | B2M knockout efficiency in LSCs after nucleofection [3] [%]
FC(F)(F)C1(Nc2nc(-c3ccncc3)cc3cnccc23)CC1 [3-(pyridin-4-yl)-N-(1-(trifluoromethyl)cyclopropyl)-2,6-naphthyridin-1-amine] | 1241 | 95 | – | –
c1cc(-c2nc(NC3CCCC3)c3ccncc3n2)ccn1 [N-cyclopentyl-2-(pyridin-4-yl)pyrido[3,4-d]pyrimidin-4-amine] | 1048 | 87 | – | –
CC(C)Nc1nc(-c2ccncc2)nc2cnccc12 [N-(propan-2-yl)-2-(pyridin-4-yl)pyrido[3,4-d]pyrimidin-4-amine] | 1275 | 93 | – | –
FC(F)(F)C1CN(c2nc(-c3ccncc3)nc3cnccc23)CCN1 (stereo not shown) [2-(pyridin-4-yl)-4-(3-(trifluoromethyl)piperazin-1-yl)pyrido[3,4-d]pyrimidine] | 1051 | 90 | – | –
CC1(Nc2cc(-c3ccncc3)cc3cnccc23)CC1 [N-(1-methylcyclopropyl)-7-(pyridin-4-yl)isoquinolin-5-amine] | 681 | 80 | – | –
CCCNc1nc(-c2c[nH]nc2C(F)(F)F)nc2cnccc12 [N-propyl-2-(3-(trifluoromethyl)-1H-pyrazol-4-yl)pyrido[3,4-d]pyrimidin-4-amine] | 991 | 86 | – | –
CCCNc1nc(-c2ccncc2)nc2cnccc12 [N-propyl-2-(pyridin-4-yl)pyrido[3,4-d]pyrimidin-4-amine] | 1423 | 93 | – | –
CC1CCCC1Nc1nc(-c2ccncc2)nc2cnccc12 (stereo not shown) [N-(2-methylcyclopentyl)-2-(pyridin-4-yl)pyrido[3,4-d]pyrimidin-4-amine] | 976 | 86 | – | –
CC(C)(CO)Nc1nc(-c2ccncc2)nc2cnccc12 [2-methyl-2-{[2-(pyridin-4-yl)pyrido[3,4-d]pyrimidin-4-yl]amino}propan-1-ol] | 1160 | 89 | – | –
O[C@H]1CCC[C@@H]1Nc1nc(-c2ccncc2)nc2cnccc12 [(1S,2S)-2-{[2-(pyridin-4-yl)pyrido[3,4-d]pyrimidin-4-yl]amino}cyclopentan-1-ol] | 39 | 6 | – | –
CC(C)(C)Nc1cc(-c2ccncc2)nc2cnccc12 [Example 2, N-(tert-butyl)-2-(pyridin-4-yl)-1,7-naphthyridin-4-amine] | 1717 | 93 | – | –
CC(C)(Nc1nc(-c2ccncc2Cl)nc2cnccc12)C(F)(F)F [2-(3-chloropyridin-4-yl)-N-(1,1,1-trifluoro-2-methylpropan-2-yl)pyrido[3,4-d]pyrimidin-4-amine] | 961 | 87 | – | –
FC(F)(F)C1(Nc2nc(-c3ccncc3)nc3cnccc23)CCC1 [2-(pyridin-4-yl)-N-[1-(trifluoromethyl)cyclobutyl]pyrido[3,4-d]pyrimidin-4-amine] | 1712 | 95 | – | –
B1 | – | – | 12 | 2
B2 | – | – | – | 2
B3 | – | – | 3 | 1
B4 | – | – | 13 | 1
B5 | – | – | 33 | 2
B6 | – | – | 33 | 2

Source: patent publication US20230348852A1, “METHODS AND COMPOSITIONS FOR OCULAR CELL THERAPY” (NOVARTIS AG, priority 2020, published 2023)
